Assay results reported in patent publication US5574031A, “Piperazine carboxamides” (priority 1992, dated 1996).
Counter-ions that a name gives are not always drawn.

Tests used:
[1] = target: T1, 5-HT2 receptors (Rattus norvegicus, UniProt P14842); assay: Affinity to 5-HT2 receptors (3H-ketanserin binding); conditions: 3H-ketanserin as ligand
T1 construct: from tissue
Experimental: Test 1. Affinity to 5-HT2 receptors
The binding assay is carried out essentially as described by Leysen et al. (Mol. Pharmacol. 21,301-14, 1982) using ^3 H-ketanserin as ligand.

[2] = target: T2, D2 -receptors (Rattus norvegicus, UniProt P61169); assay: Affinity to D2-receptors (3H-spiroperidol binding); conditions: 3H-spiroperidol as ligand
T2 construct: from tissue
T2 sequence (P61169 whole entry): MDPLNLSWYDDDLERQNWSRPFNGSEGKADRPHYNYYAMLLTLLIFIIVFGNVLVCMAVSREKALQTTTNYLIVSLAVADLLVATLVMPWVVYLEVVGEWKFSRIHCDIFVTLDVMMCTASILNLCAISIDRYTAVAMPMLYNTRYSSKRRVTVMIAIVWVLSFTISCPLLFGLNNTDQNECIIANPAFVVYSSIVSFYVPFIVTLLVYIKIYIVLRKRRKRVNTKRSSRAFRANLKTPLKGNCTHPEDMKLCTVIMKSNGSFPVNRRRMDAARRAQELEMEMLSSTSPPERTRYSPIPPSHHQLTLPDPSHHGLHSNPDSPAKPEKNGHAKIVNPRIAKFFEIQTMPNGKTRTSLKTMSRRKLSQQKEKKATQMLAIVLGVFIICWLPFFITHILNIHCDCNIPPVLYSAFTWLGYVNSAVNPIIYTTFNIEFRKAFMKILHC
Experimental: Test 2 Affinity to D2 -receptors.
The binding assay is carried out essentially as described by Leysen et al. (Mol. Pharmacol. 21,301-14, 1982) using ^3 H-spiroperidol as ligand.

T1 sequence (P14842 whole entry): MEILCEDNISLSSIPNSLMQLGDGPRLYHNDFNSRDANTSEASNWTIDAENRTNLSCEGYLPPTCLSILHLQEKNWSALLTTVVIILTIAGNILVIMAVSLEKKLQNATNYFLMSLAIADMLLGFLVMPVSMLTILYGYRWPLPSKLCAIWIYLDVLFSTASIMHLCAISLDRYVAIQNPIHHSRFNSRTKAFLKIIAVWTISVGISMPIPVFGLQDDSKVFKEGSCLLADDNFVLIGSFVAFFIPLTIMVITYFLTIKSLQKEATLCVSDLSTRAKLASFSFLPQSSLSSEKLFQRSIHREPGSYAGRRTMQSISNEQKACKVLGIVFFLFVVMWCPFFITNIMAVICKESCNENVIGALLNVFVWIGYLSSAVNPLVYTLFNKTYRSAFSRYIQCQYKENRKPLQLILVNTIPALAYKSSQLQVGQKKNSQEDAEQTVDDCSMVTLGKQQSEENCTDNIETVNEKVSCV

**Q.** For `CNC(=S)N1CCN(CCOC(c2ccc(F)cc2)c2ccc(F)cc2)CC1` [3:4, 4-[2-[(4,4'Difluorobenzhydryl)oxy]-ethyl]-N-methyl-1-piperazinethiocarboxamide hydrochloride], which Ki [1] is on record?
**A.** The Ki was 20 nM.

**Q.** What about the Ki [2] of the same molecule?
**A.** The Ki was 1600 nM.

**Q.** `O=C(N1CCCC1)N1CCN(CCOC(c2ccc(F)cc2)c2ccc(F)cc2)CC1` [6:2, 1-[2-[(4,4'-Difluorobenzhydryl)oxy]ethyl]-4-(pyrrolidino-carbonyl)piperazine hydrochloride] was tested. Which Ki [1] did it give?
**A.** Its Ki is 15 nM.

**Q.** And the Ki [2]?
**A.** Its Ki is 1780 nM.

**Q.** How did the Ki [1] turn out when `CCNC(=O)N1CCN(CCCC(c2ccc(F)cc2)c2ccc(F)cc2)CC1` [Amperozide, reference compound] was run?
**A.** Its Ki is 17 nM.

**Q.** What about the Ki [2] of the same molecule?
**A.** The Ki was 540 nM.

**Q.** Which results are given for `CCNC(=O)N1CCN(CCOC(c2ccc(F)cc2)c2ccc(F)cc2)CC1` [3:1, 4-[2-[(4,4'Difluorobenzhydryl)oxy]-ethyl]-N-ethyl-1-piperazinecarboxamide hydrochloride]?
**A.** Ki [1]: 60 nM; Ki [2]: > 10000 nM
